From ChEMBL document CHEMBL1156482, “Molecular mechanism of action of monocyclam versus bicyclam non-peptide antagonists in the CXCR4 chemokine receptor” (J Biol Chem, 2007) come the findings set out here.

Activity calls are given as the source filed them. No cut-off for these calls is given here.

Assay [1] concerns the target C-X-C chemokine receptor type 4 (Homo sapiens, UniProt P61073). Description: Displacement of [125I]12G5 antibody from human wild type CXCR4 expressed in COS7 cells. In kind it is cell-based, COS-7.
For assay [2], the system named is C-X-C chemokine receptor type 4 (Homo sapiens), P61073 [A175F]. Description: (§1) Displacement of [125I]12G5 antibody from extracellular loop 2 of human CXCR4 A175F mutant expressed in COS7 cells. In kind it is cell-based. The settings on record: COS-7. In general terms: Loss of bound radioactivity is the signal in a displacement assay; it reports binding, not function.
Chain of C-X-C chemokine receptor type 4 (Homo sapiens), P61073 [A175F] (P61073 whole entry A175F): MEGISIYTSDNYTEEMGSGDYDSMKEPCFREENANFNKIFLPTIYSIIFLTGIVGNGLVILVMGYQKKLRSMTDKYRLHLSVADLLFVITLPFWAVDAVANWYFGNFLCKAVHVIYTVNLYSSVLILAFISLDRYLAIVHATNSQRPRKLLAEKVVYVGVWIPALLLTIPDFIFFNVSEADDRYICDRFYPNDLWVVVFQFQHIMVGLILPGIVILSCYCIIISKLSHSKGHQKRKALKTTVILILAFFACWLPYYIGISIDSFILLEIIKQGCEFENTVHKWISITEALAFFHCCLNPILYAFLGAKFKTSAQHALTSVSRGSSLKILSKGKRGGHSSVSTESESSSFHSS

Assay [3] concerns the target C-X-C chemokine receptor type 4 (Homo sapiens, UniProt P61073, A175F). The description is as §1. In kind it is cell-based, COS-7.
Assay [4] relates to C-X-C chemokine receptor type 4 (Homo sapiens), P61073 [Q200W]. The assay is described as follows: (§2) Displacement of [125I]12G5 antibody from transmembrane domain 5 of human CXCR4 Q200W mutant expressed in COS7 cells. In kind it is cell-based. The settings on record: COS-7.
Chain of C-X-C chemokine receptor type 4 (Homo sapiens), P61073 [Q200W] (P61073 whole entry Q200W, the tested form may be a part): as the sequence (P61073 whole entry A175F) above, with F175A, Q200W counted along it
The target of assay [5] is C-X-C chemokine receptor type 4 (Homo sapiens, UniProt P61073, Q200W). The description is as §2. In kind it is cell-based, COS-7.
Chain of C-X-C chemokine receptor type 4 (Homo sapiens, UniProt P61073, Q200W) (P61073 whole entry Q200W, the tested form may be a part): as the sequence (P61073 whole entry A175F) above, with F175A, Q200W counted along it
Assay [6] deals with C-X-C chemokine receptor type 4 (Homo sapiens), P61073 [S263A]. Description: (§3) Displacement of [125I]12G5 antibody from transmembrane domain 6 of human CXCR4 S263A mutant expressed in COS7 cells. In kind it is cell-based. The note with it: COS-7.
Chain of C-X-C chemokine receptor type 4 (Homo sapiens), P61073 [S263A] (P61073 whole entry S263A, the tested form may be a part): as the sequence (P61073 whole entry A175F) above, with F175A, S263A counted along it
Assay [7] concerns the target C-X-C chemokine receptor type 4 (Homo sapiens, UniProt P61073, S263A). The description is as §3. In kind it is cell-based, COS-7.
Assay [8] has as its system C-X-C chemokine receptor type 4 (Homo sapiens), P61073 [H113A]. The assay is described as follows: (§4) Antagonist activity at human CXCR4 H113A mutant expressed in COS7 cells coexpressing G protein Gqi4myr assessed as inhibition of CXCL12-induced phosphatidylinositol turnover. In kind it is functional, cell-based. The settings on record: COS-7.
Assay [9] deals with C-X-C chemokine receptor type 4 (Homo sapiens, UniProt P61073, H113A). The description is as §4. In kind it is functional, cell-based, COS-7.
Chain of C-X-C chemokine receptor type 4 (Homo sapiens, UniProt P61073, H113A) (P61073 whole entry H113A): as the sequence (P61073 whole entry A175F) above, with H113A, F175A counted along it
Assay [10] has as its target C-X-C chemokine receptor type 4 (Homo sapiens, UniProt P61073, Q200A). The assay is described as follows: Antagonist activity at human CXCR4 Q200A mutant expressed in COS7 cells coexpressing G protein Gqi4myr assessed as inhibition of CXCL12-induced phosphatidylinositol turnover. In kind it is functional, cell-based, COS-7.
Assay [11] relates to C-X-C chemokine receptor type 4 (Homo sapiens), P61073 [I259A]. Description: (§5) Antagonist activity at transmembrane domain 6 of human CXCR4 I259A mutant expressed in COS7 cells coexpressing G protein Gqi4myr assessed as inhibition of CXCL12-induced phosphatidylinositol turnover. In kind it is functional, cell-based. The settings on record: COS-7.
Chain of C-X-C chemokine receptor type 4 (Homo sapiens), P61073 [I259A] (P61073 whole entry I259A, the tested form may be a part): as the sequence (P61073 whole entry A175F) above, with F175A, I259A counted along it
The target in assay [12] is C-X-C chemokine receptor type 4 (Homo sapiens, UniProt P61073, I259A). The assay is described as §5. In kind it is functional, cell-based, COS-7.
Chain of C-X-C chemokine receptor type 4 (Homo sapiens, UniProt P61073, I259A) (P61073 whole entry I259A): as the sequence (P61073 whole entry A175F) above, with F175A, I259A counted along it
Assay [13] concerns C-X-C chemokine receptor type 4 (Homo sapiens), P61073 [T287A]. The assay is described as follows: (§6) Antagonist activity at human CXCR4 T287A mutant expressed in COS7 cells coexpressing G protein Gqi4myr assessed as inhibition of CXCL12-induced phosphatidylinositol turnover. In kind it is functional, cell-based. The note with it: COS-7.
Chain of C-X-C chemokine receptor type 4 (Homo sapiens), P61073 [T287A] (P61073 whole entry T287A): as the sequence (P61073 whole entry A175F) above, with F175A, T287A counted along it
Assay [14] deals with C-X-C chemokine receptor type 4 (Homo sapiens, UniProt P61073, T287A). The assay is described as §6. In kind it is functional, cell-based, COS-7.
Chain of C-X-C chemokine receptor type 4 (Homo sapiens, UniProt P61073, T287A) (P61073 whole entry T287A): as the sequence (P61073 whole entry A175F) above, with F175A, T287A counted along it
Assay [15] concerns C-X-C chemokine receptor type 4 (Homo sapiens), P61073 [E288A]. Description: (§7) Antagonist activity at human CXCR4 E288A mutant expressed in COS7 cells coexpressing G protein Gqi4myr assessed as inhibition of CXCL12-induced phosphatidylinositol turnover. In kind it is functional, cell-based. The settings on record: COS-7.
Chain of C-X-C chemokine receptor type 4 (Homo sapiens), P61073 [E288A] (P61073 whole entry E288A): as the sequence (P61073 whole entry A175F) above, with F175A, E288A counted along it
Assay [16] concerns the target C-X-C chemokine receptor type 4 (Homo sapiens, UniProt P61073, E288A). Described as §7. In kind it is functional, cell-based, COS-7.
Assay [17] concerns Human immunodeficiency virus 1. The assay is described as follows: Antiviral activity against HIV1 NL43 infected in U87.CD4 cells expressing human wild type CXCR4. In kind it is functional, organism-based. The note with it: Human immunodeficiency virus 1, NL43, U87.CD4.
The test system of assay [18] is Human immunodeficiency virus 1. The assay is described as follows: Antiviral activity against HIV1 NDK infected in U87.CD4 cells expressing human CXCR4 D262N mutant. In kind it is functional, organism-based. The settings on record: Human immunodeficiency virus 1, NDK.
The subject of assay [19] is Human immunodeficiency virus 1. The assay is described as follows: Antiviral activity against HIV1 NL43 infected in U87.CD4 cells expressing human CXCR4 E288A mutant. In kind it is functional, organism-based.
Assay [20] concerns Human immunodeficiency virus 1. Description: Antiviral activity against HIV1 NDK infected in U87.CD4 cells expressing human CXCR4 E288A mutant. The settings on record: Human immunodeficiency virus 1, NDK. In kind it is functional, organism-based.

Chain of C-X-C chemokine receptor type 4 (Homo sapiens, UniProt P61073) (P61073 whole entry): as the sequence (P61073 whole entry A175F) above, with F175A counted along it
Chain of C-X-C chemokine receptor type 4 (Homo sapiens, UniProt P61073, S263A) (P61073 whole entry S263A): as the sequence (P61073 whole entry A175F) above, with F175A, S263A counted along it
Chain of C-X-C chemokine receptor type 4 (Homo sapiens, UniProt P61073, E288A) (P61073 whole entry E288A): as the sequence (P61073 whole entry A175F) above, with F175A, E288A counted along it
Chain of C-X-C chemokine receptor type 4 (Homo sapiens, UniProt P61073, A175F) (P61073 whole entry A175F, the tested form may be a part): as the sequence (P61073 whole entry A175F) above
Chain of C-X-C chemokine receptor type 4 (Homo sapiens), P61073 [H113A] (P61073 whole entry H113A): as the sequence (P61073 whole entry A175F) above, with H113A, F175A counted along it
Chain of C-X-C chemokine receptor type 4 (Homo sapiens, UniProt P61073, Q200A) (P61073 whole entry Q200A, the tested form may be a part): as the sequence (P61073 whole entry A175F) above, with F175A, Q200A counted along it

In general, Ki refers to a dissociation constant, usually derived from enzyme kinetics or from competition with a known ligand. Usually IC50 stands for the concentration that gives 50% inhibition. Read a high IC50 as lower potency. For the compound `c1ccc(CNCc2ccc(CN3CCCNCCNCCCNCC3)cc2)nc1`, the Ki in assay [1] was 110 nM; in assay [3], 215 µM; in assay [5], 1200 nM; in [7], 530 nM; in assay [9], 130 nM; in assay [10], 150 nM. For the same compound, the figures for the inhibition constant (Ki) in assay [12], in [14] and in assay [16] were 30 nM, 10 nM and 1900 nM, respectively. Also, the logKi in assay [1] (COS-7) is -6.95; in assay [2] it was -3.67; in assay [4] it was -5.94; in assay [6], -6.27. Also, the logIC50 was -6.89 in assay [8], -7.55 in assay [11], -8.1 in [13] and -5.17 in [15]. Besides, the 50% inhibitory concentration (IC50) was 36 µM in [17], 5.38 µM in assay [18] and above 5.5 µM in assay [20]. Also, in assay [19], the result was inactive.
